Measured values taken from patent publication US20110098257A1, “DERIVATIVES OF 4- OR 5-AMINOSALICYLIC ACID” (ANTIBE THERAPEUTICS INC., priority 2005, published 2011).
Where a name gives a salt, the structure may show the parent alone.

Key:
[1] = tested on: visceral pain in response to colorectal distension; experiment: Rat model of visceral pain perception (colorectal distension, AWR score); assay type: in vivo, Rats (male, Wistar); conditions: for pain perception: equimolar doses: mesalamine 50, Compound XXXV 130, ADT-OH 80, Compound XXVII 100, 4-HTB 50 mg/kg; for pain perception / pain perception score: vs vehicle-treated group; for pain perception score after glibenclamide pretreatment / pain perception score: 0.8 mL colorectal distention, 100 mg/kg, FIG. 17; for pain perception score after glibenclamide pretreatment: glibenclamide 10 mg/kg i.p. 30 min before
Experimental: A rat model of visceral pain perception, a pre-clinical model of irritable bowel syndrome, was used in the following example. Rats (male, Wistar, 200-250 g, obtained from Charles River, Monza, Italy), were housed in plastic cages and maintained under controlled conditions with 12-hours light/dark cycle with lights on at 7.00 AM. Tap water and standard laboratory chow were freely available. Before experiments, rats were individually trained by spending 2-3 hours per day in a plexiglass cage for 2-3 days. It allowed them to adjust to a movement-restriction environment. Food was withheld for 12 hours before colorectal distension (CRD) recording were performed. Experiments were performed in awake rats and were conducted in a blind manner in that the observer was not aware of the identity of drug administered to each animal.
In the testing day, rats were sedated with ether inhalation and a 2 cm long latex balloon was inserted intrarectally 2 cm from the anal verge and fixed at the base of the tail. The balloon was connected via a double-barreled cannula to a pressure transducer to continuously monitoring the rectal pressure by a computer (PowerLab PC, A.D. Instruments, Milford, Mass., USA) and to a syringe for inflation/deflation of the balloon. The rats were then housed in a small cage (20×8×8 cm) on an elevated Plexiglas™ platform and allowed to wake up and adapt for 1 hour. After recovery from sedation, animals underwent the CRD procedure and behavioral responses were tested. The night before the experiments, the balloons were inflated and left overnight so the latex stretched and the balloons became compliant.
CRD of 20 seconds, performed every 5 minutes, was applied in increment of 0.4 ml starting from 0.4 ml up to 1.6 ml water. To achieve an accurate measurement of the colonic parameters and perception, the distensions were repeated twice for each intensity and data for each animal were averaged for analysis. Each animal underwent a double set of CRD. Twenty minutes after the first sequence of CRD (0.4 mL-1.6 ml water), drugs were administered intraperitoneally (i.p.) and a second set of CRD was performed. Behavioral responses during the first and the second set of CRD were assessed and compared.
Behavioral response to CRD was assessed by measuring the abdominal withdrawal reflex (AWR) using a semiquantitative score (1).
The effects of mesalamine and Compound XXXV on colonic compliance and sensitivity were determined using a total of 8 fasting rats. To investigate whether the administration of mesalamine and Compound XXXV could revert pain induced by CRD, after the first sequence of CRD, […], after which a second set of CRD was repeated.
To determine the effect of mesalamine or Compound XXXV on colonic smooth muscle, the compliance of the colo-rectum during CRD was obtained from intracolo-rectal volume and pressure and expressed as mL/mmHg.
All data are presented as the mean±SEM, with sample sizes of 4 rats/group; statistical comparison of paired data was performed by the Wilcoxon signed rank test. An associated probability (p value) of less that 5% was considered significant.
A rat model of visceral pain perception as described above was used to compare pain perception scores for both Compound XXXV and Compound XXVII with or without glibenclamide, an inhibitor of ATP-sensitive K^+ (KATP) channels.

[2] = tested on: leukocyte adherence in mesenteric post-capillary venules; experiment: Leukocyte adherence to the vascular endothelium in vivo (intravital microscopy, aspirin-induced); set-up: species or system Rats
Experimental: Leukocyte adherence was studied using intravital microscopy, as described in detail previously (Wallace et al., (1993) Am. J. Physiol. 265: 993-998, incorporated hereto by reference). Rats were anesthetized with pentobarbital sodium (60 mg/kg i.p.) and cautery incisions were made along the abdominal region. A tracheotomy was performed to facilitate breathing. The rats were placed in a supine position, and a segment of the mesentery was exteriorized through the abdominal incision. The mesentery was carefully placed over an optically clear viewing pedestal that allowed for trans-illumination of a 2-cm^2 segment of tissue. All exposed tissue was covered with saline-soaked gauze to minimize dehydration. The temperature of the pedestal was kept at 37° C. and the mesentery was superfused with warmed bicarbonate-buffered saline (pH 7.4). An intravital microscope (Nikon L25/0.35) and a ×10 eyepiece were used to observe the mesenteric microcirculation. Post-capillary venules with diameters ranging from 20 to 40 μm were selected for the study. A video camera mounted on the microscope (Panasonic™ digital 5000) projected the image onto a monitor, and the images were recorded for playback analysis using a videocassette recorder. Images of the mesenteric microcirculation were recorded 5 minutes prior to aspirin administration (baseline), at the time of aspirin administration (time 0-5) and every 15 minutes for 60 minutes. Leukocyte adherence was blindly quantified from videotaped images of the vessels made over 5-min periods as the number of leukocytes that remained stationary along the vessel wall for 30 s or more (expressed per 100 μm venule length). Groups of rats (at least 5 in each) were pretreated with Compound XXXV (130 mg/kg), Compound XXVII (100 mg/kg), mesalamine (50 mg/kg), or vehicle 60 min prior to aspirin (or vehicle) administration. These drugs were given intragastrically. In some experiments, rats were treated with glibenclamide (10 mg/kg i.p.) or vehicle 30 min prior to administration of these compounds.

[3] = tested on: PE (1 μM) precontracted rings of thoracic aorta; experiment: Vasorelaxant effect on PE precontracted thoracic aorta rings; set-up: species or system CD-1 mice; conditions: cumulative concentration-response 10 nM-3 mM, endothelium present, vs vehicle; FIG. 22
Experimental: CD-1 mice were sacrificed and thoracic aorta was rapidly dissected and cleaned from fat and connective tissue. […] Changes in isometric tension were recorded with PowerLab™ data acquisition system (Ugo Basile, Italy). […] Rings were initially stretched until a resting tension of 1.5 g was reached and allowed to equilibrate for at least 40 minutes during which tension was adjusted, when necessary, to 1.5 g and bathing solution was periodically changed.
Vehicle represents buffer but no compound. Curves to tested compounds were constructed in presence of endothelium.
Data obtained are shown in FIG. 22 and are expressed as mean±SEM. The level of statistical significance was determined by 2-way analysis of variance (ANOVA) followed by Bonferroni's test for multiple comparison, using the GraphPad™ software.

[4] = tested on: mice having TNBS-induced colitis; experiment: TNBS-induced colitis in mice (disease activity score, colonic MPO activity); assay type: in vivo, Balb/c mice
Experimental: A standard experimental animal model of colitis induced by intracolonic administration of 2,4,6-trinitrobenzene sulfonic acid (TNBS) to mice is used in the following example. A detailed description of this model has been published (Santucci et al. (2003) Gastroenterology 124:1381-94) and is incorporated herein by reference. Briefly, 6-8 week old Balb/c mice were given TNBS intracolonically at a dose of 1.5 mg in 0.1 mL of 30% ethanol. The mice were randomized to the various treatment groups (n=6 per group). Beginning one hour later and continuing every 12 h for 5 days, the mice were treated orally with vehicle (1% carboxymethylcellulose (CMC)), 5-ASA (mesalamine) (25, 50 or 75 mg/kg) or with equimolar doses of 2-hydroxy-5-amino-benzoic acid 4-(thioxo-5H-[1,2]dithiol-3-yl)-phenyl ester hydrochloride (Compound XXXV) (130 mg/kg), or with […] (100 mg/kg), 50% (66 mg/kg) and 25% (33 mg/kg) of that dose. The mice were evaluated (blindly) on the final day of the study for the presence of diarrhea and fecal occult blood, and their body weights were measured. […] After sacrifice, a sample of the colon was excised for measurement of myeloperoxidase (MPO) activity, as a marker of granulocyte infiltration. All results were compared to those obtained with healthy mice as well.
FIGS. 3 and 4 show the Disease Activity Index and MPO activity, respectively, using the same experimental animal model of colitis as described above, in which Compound XXXV (130 mg/kg) was compared to equimolar doses of its two constituents, mesalamine (50 mg/kg) and 5-p-hydroxyphenyl-[…] (ADT-OH) (80 mg/kg), and a mixture of mesalamine (50 mg/kg) and ADT-OH (80 mg/kg). *p<0.05 versus the vehicle-treated group. Each group consisted of at least 5 rats.
FIGS. 6 and 7 show the Disease Activity Index and MPO, respectively, using the same experimental animal model of colitis as described above, in which Compound XXVII (100 mg/kg) was compared to equimolar doses of its two constituents, mesalamine (50 mg/kg) and 4-hydroxythiobenzamide (4-HTB) (50 mg/kg), mesalamine alone (50 mg/kg) and 4-HTB alone (50 mg/kg). *p<0.05 versus the vehicle-treated group. Each group consisted of at least 5 rats.
The same model was used as described above. In this example, the effects of mesalamine (50 mg/kg) were compared to those of equimolar doses of Compound XXXV. In addition to measuring the severity of colitis by measuring disease activity score and MPO activity, tissues were processed for measurement of a number of genes for inflammatory cytokines and other mediators.

[5] = after patients have taken the usual doses; Dig. Dis. Sci. 1989; 34: 573-578; cited from earlier work

## Nc1ccc(O)c(C(=O)Oc2ccc(-c3cc(=S)ss3)cc2)c1 (as salt: hydrochloride) [Compound XXXV, 5-Amino-2-hydroxy-benzoic acid 4-(5-thioxo-5H-[1,2]dithiol-3-yl)-phenyl ester]
other
  melting point: 93 to 95 °C

## Oc1ccc(-c2cc(=S)ss2)cc1 [ADT-OH, 5-p-hydroxyphenyl-1,2-dithione-3-thione, reference compound]
[1]
  pain perception: Only Compound XXXV and Compound XXVII significantly reduced pain perception

## CC(=O)Oc1ccccc1C(=O)O [Aspirin, aspirin, reference compound]
[2]; vs baseline period / vehicle+vehicle group, FIG. 19
  leukocyte adherence after intragastric aspirin: markedly increased leukocyte adherence

## NC(=S)c1ccc(O)cc1 [Compound 4-HTB, 4-hydroxythiobenzamide, reference compound]
[3]
  vasorelaxant effect (% relaxation): significant vasorelaxant effects, which were concentration dependent
[1]
  pain perception: Only Compound XXXV and Compound XXVII significantly reduced pain perception

## NC(=S)c1ccc(OC(=O)c2cc(N)ccc2O)cc1 [Compound XXVII, 5-Amino-2-hydroxy-benzoic acid 4-thiocarbamoyl-phenyl ester]
[1]
  pain perception score after glibenclamide pretreatment: reversed by pretreatment with glibenclamide
  pain perception score: significantly reduced the pain perception
  pain perception: significantly reduced pain perception
[4]; Compound XXVII 100 mg/kg vs mesalamine 50 mg/kg, 4-HTB 50 mg/kg and their mixture, FIG. 5
  Disease Activity Index: almost three times as effective as either mesalamine alone, 4-HTB alone or a mixture of mesalamine and 4-HTB
[4]; Compound XXVII 100 mg/kg, FIG. 6
  MPO activity (granulocyte infiltration): significantly reduced inflammation
[2]; minutes 60-65, Compound XXXV 130 mg/kg, Compound XXVII 100 mg/kg, FIG. 20
  aspirin-induced leukocyte adherence, final time period: suppress aspirin-induced leukocyte adherence
[2]; minutes 60-65, glibenclamide 10 mg/kg i.p., FIG. 20
  aspirin-induced leukocyte adherence, final time period, with glibenclamide pretreatment: glibenclamide pretreatment to reverse this inhibitor effect
other
  melting point: 193 to 195 °C

## COc1ccc(Cl)cc1C(=O)NCCc1ccc(S(=O)(=O)NC(=O)NC2CCCCC2)cc1 [Glibenclamide, glibenclamide, reference compound]
[2]; glibenclamide 10 mg/kg i.p., no aspirin, FIG. 19
  leukocyte adherence, glibenclamide alone: did not affect leukocyte adherence
[2]; pretreatment: Compound XXXV 130 mg/kg or mesalamine 50 mg/kg intragastrically 60 min prior to aspirin, glibenclamide 10 mg/kg i.p., FIG. 19
  aspirin-induced increase in leukocyte adherence: did not affect the magnitude of aspirin-induced leukocyte adherence

## Nc1ccc(O)c(C(=O)O)c1 [mesalamine, 5-aminosalicylic acid]
[1]
  pain perception score after glibenclamide pretreatment: did not affect the pain perception
  pain perception score: had no significant effect
  pain perception: Only Compound XXXV and Compound XXVII significantly reduced pain perception
[2]; glibenclamide 10 mg/kg i.p. 30 min prior to the compound, compound plus aspirin, FIG. 19
  aspirin-induced leukocyte adherence with glibenclamide pretreatment: no effect
[5]
  mesalamine concentration in the colonic lumen: up to 5 mM

## CC(=N)S [thioacetamide]
[3]
  vasorelaxant effect (% relaxation): significant vasorelaxant effects, which were concentration dependent
